Patent US4068074A, “Cephalosporin derivatives having at the 3-position of the cephem ring a heterocyclic thiomethyl group with a carboxy or sulfo group and at the 7-position of the cephem ring an α-heterocylic acylaminophenyl-acetamide group” (priority 1974, dated 1978)
Values after ≈ are worked out from the molar mass of the structure shown. Where two headings read alike, the source gives them in different places.

Key:
[1] = Residual antibacterial activity after incubation with 90% plasma (Table 4); assay type: in vitro ADME, male Sprague-Dowley rat; conditions: 90% rat plasma; for remaining at 0.25 h / remaining at 0.5 h / remaining at 1.5 h: 90% plasma; for remaining at 0.25 h: 15 minute; for remaining at 0.5 h: 30 minute; for remaining at 1.5 h: 90 minute; for Residual activity: 0 minute
Protocol: (§1) The relation between the reaction period of time and the antibacterial activity (residual activity, %) when these compounds are incubated with the plasma and the liver homogenate of a male Sprague-Dowley rat is shown in Table 4. The residual antibacterial activity was measured by a thin-layer cup method according to Bacillus subtilis ATCC 6633.
A*Residual activity (%) when incubated with 90% plasma.

[2] = Residual antibacterial activity after incubation with 10% liver homogenate (Table 4); assay type: in vitro ADME, male Sprague-Dowley rat; conditions: 10% rat liver homogenate; for remaining at 0.25 h / remaining at 0.5 h / remaining at 1.5 h: 10% liver homogenate, read-out: Residual activity; for remaining at 0.25 h: 15 minute; for remaining at 0.5 h: 30 minute; for remaining at 1.5 h: 90 minute; for Residual activity: 0 minute
Protocol: as §1
B*Residual activity (%) when incubated with 10% liver homogenate.

[3] = Solubility of salts in water (Table 2); assay type: physicochemical; conditions: for Solubility (appearance of solution): sodium salt, in water
Text: An advantage of the compounds of this invention is that the salts, for example, sodium salts of these compounds are readily soluble in water at pH of living bodies, which makes them suitable for injections at high concentration. The solubility of these compounds are illustrated in Table 2 together with a control example.

Proteus vulgaris OXK US = assay: MIC against bacteria (Table I), strain (1); assay type: cell-based; conditions: (1) Proteus vulgaris OXK US; read-out: MIC
Text: (§2) Now, for illustrating the excellent pharmacological effects of the compounds of this invention, the values of MIC (γ/ml.) of the compounds against various bacteria are shown in Table 1, in which the compounds of this invention used are shown by example numbers.
(1) Proteus vulgaris OXK US

Proteus vulgaris 0X 19US = assay: MIC against bacteria (Table I), strain (2); assay type: cell-based; conditions: 0X19US; (2) Proteus vulgaris 0X 19US; read-out: MIC
Text: as §2
(2) Proteus vulgaris 0X 19US

[4] = tested on: Proteus mirabilis IXM OM-19; assay: MIC against bacteria (Table I), strain (3); assay type: cell-based; conditions: IXMOM19; (3) Proteus mirabilis IXM OM-19; read-out: MIC
Text: as §2
(3) Proteus mirabilis IXM OM-19

[5] = tested on: Pseudomonas aeruginosa ATCC 8689; assay: MIC against bacteria (Table I), strain (4); assay type: cell-based; conditions: ATCC8689; (4) Pseudomonas aeruginosa ATCC 8689; read-out: MIC
Text: as §2
(4) Pseudomonas aeruginosa ATCC 8689

[6] = tested on: Pseudomonas aeruginosa 99 (Gentamycin resistant); assay: MIC against bacteria (Table I), strain (5); assay type: cell-based; conditions: (5) Pseudomonas aeruginosa 99 (Gentamycin resistant); read-out: MIC
Text: as §2
(5) Pseudomonas aeruginosa 99 (Gentamycin resistant)

[7] = tested on: Psuedomonas ovalis IMA 1002; assay: MIC against bacteria (Table I), strain (6); assay type: cell-based; conditions: (6) Psuedomonas ovalis IMA 1002; read-out: MIC
Text: as §2
(6) Psuedomonas ovalis IMA 1002

[8] = tested on: Escherichia coli kauffmann 0-1; assay: MIC against bacteria (Table I), strain (7); assay type: cell-based; conditions: Escherichia coli
Text: as §2
(7) Escherichia coli kauffmann 0-1

[9] = tested on: Klebsiella pneumoniae ATCC 10031; assay: MIC against bacteria (Table I), strain (8); assay type: cell-based; conditions: ATCC10031
Text: as §2
(8) Klebsiella pneumoniae ATCC 10031

Salmonella typhi H901 W = assay: MIC against bacteria (Table I), strain (9); assay type: cell-based; conditions: Salmonella enterica, TYPHI
Text: as §2
(9) Salmonella typhi H901 W

Salmonella enteritidis = assay: MIC against bacteria (Table I), strain (10); assay type: cell-based; conditions: Salmonella enterica
Text: as §2
(10) Salmonella enteritidis

[10] = tested on: Shigella flexneri 2a 1675; assay: MIC against bacteria (Table I), strain (11); assay type: cell-based; conditions: 2A1675; (11) Shigella flexneri 2a 1675; read-out: MIC
Text: as §2

Shigella sonnei II 37148 = assay: MIC against bacteria (Table I), strain (12); assay type: cell-based; conditions: II37148; (12) Shigella sonnei II 37148; read-out: MIC
Text: as §2

[11] = tested on: Bacillus megatherium 10778; assay: MIC against bacteria (Table I), strain (13); assay type: cell-based; conditions: (13) Bacillus megatherium 10778; read-out: MIC
Text: as §2

[12] = tested on: Bacillus subtilis ATCC 6633; assay: MIC against bacteria (Table I), strain (14); assay type: cell-based; conditions: ATCC6633; (14) Bacillus subtilis ATCC 6633; read-out: MIC
Text: as §2
(14) Bacillus subtilis ATCC 6633

[13] = tested on: Micrococcus flavus ATCC 10240; assay: MIC against bacteria (Table I), strain (15); assay type: cell-based; conditions: ATCC10240; (15) Micrococcus flavus ATCC 10240; read-out: MIC
Text: as §2
(15) Micrococcus flavus ATCC 10240

[14] = tested on: Staphylococcus aureus 209P; assay: MIC against bacteria (Table I), strain (16); assay type: cell-based; conditions: (16) Staphylococcus aureus 209P; read-out: MIC
Text: as §2
(16) Staphylococcus aureus 209P

[15] = tested on: Staphylococcus Shimanishi; assay: MIC against bacteria (Table I), strain (17); assay type: cell-based; conditions: (17) Staphylococcus Shimanishi; read-out: MIC
Text: as §2
(17) Staphylococcus Shimanishi

Staphylococcus Onuma = assay: MIC against bacteria (Table I), strain (18); assay type: cell-based
Text: as §2
(18) Staphylococcus Onuma

SMILES	remaining at 0.25 h [1] [%]	remaining at 0.5 h [1] [%]	remaining at 1.5 h [1] [%]	Residual activity [1] [%]	remaining at 0.25 h [2] [%]	remaining at 0.5 h [2] [%]	remaining at 1.5 h [2] [%]	Residual activity [2] [%]	MIC (Proteus vulgaris OXK US) [µg/mL]	MIC (Proteus vulgaris 0X 19US) [µg/mL]	MIC [4] [µg/mL]	MIC [5] [µg/mL]	MIC [6] [µg/mL]	MIC [7] [µg/mL]	MIC [8] [µg/mL]	MIC (Salmonella typhi H901 W) [µg/mL]	MIC [10] [µg/mL]	MIC (Shigella sonnei II 37148) [µg/mL]	MIC [11] [µg/mL]	MIC [12] [µg/mL]	also measured
O=C(Cc1cccs1)N[C@@H]1C(=O)N2C(C(=O)[O-])=C(C[n+]3ccccc3)CS[C@H]12 [Cephaloridine, reference compound]	97.2	89.5	72.2	100	82.3	86	91.1	100	–	–	–	–	–	–	–	–	–	–	–	–	–
Cc1nnc(SCC2=C(C(=O)O)N3C(=O)[C@@H](NC(=O)[C@H](NC(=O)c4cnccc4O)c4ccccc4)[C@H]3SC2)s1 [Control sample, reference compound]	–	–	–	–	–	–	–	–	–	–	–	–	–	–	–	–	–	–	–	–	Solubility (appearance of solution) ([3]; at 0.5%): clearly; Solubility (appearance of solution) ([3]; at 1%): became slight turbid; Solubility (appearance of solution) ([3]; at 5%): became turbid; Solubility (appearance of solution) ([3]; at 10%): became thickly turbid; Solubility (appearance of solution) ([3]; at 20%): gelled
O=C(O)C1=C(CSc2nnc(SCCS(=O)(=O)O)s2)CS[C@@H]2[C@H](NC(=O)[C@H](NC(=O)c3cnccc3O)c3ccccc3)C(=O)N12 [Example 9, 7-[D-α-(4-hydroxynicotinoylamido)-α-phenylacetamido]-3-(5-sulfoethylthio-1,3,4-thiadiazol-2-yl)thiomethyl-Δ^3-cephem-4-carboxylic acid]	103	92	100	100	100	100	102	100	0.19 (≈ 0.262 µM)	0.39 (≈ 0.538 µM)	0.39 (≈ 0.538 µM)	12.5 (≈ 17.2 µM)	12.5 (≈ 17.2 µM)	12.5 (≈ 17.2 µM)	3.13 (≈ 4.32 µM)	1.56 (≈ 2.15 µM)	1.56 (≈ 2.15 µM)	6.25 (≈ 8.62 µM)	0.39 (≈ 0.538 µM)	0.39 (≈ 0.538 µM)	MIC ([9]; (8) Klebsiella pneumoniae ATCC 10031, read-out: MIC): 3.13 µg/mL (≈ 4.32 µM); MIC (Salmonella enteritidis; ENTERITIDIS): 0.39 µg/mL (≈ 0.538 µM); MIC [13]: 3.13 µg/mL (≈ 4.32 µM); MIC [14]: 0.78 µg/mL (≈ 1.08 µM); MIC [15]: 3.13 µg/mL (≈ 4.32 µM); MIC (Staphylococcus Onuma; Staphylococcus): 6.25 µg/mL (≈ 8.62 µM)
O=C(O)CSc1nsc(SCC2=C(C(=O)O)N3C(=O)[C@@H](NC(=O)[C@H](NC(=O)c4cnccc4O)c4ccccc4)[C@H]3SC2)n1 [Example 13, 7-[D-α-(4-hydroxynicotinoylamido)-α-phenylacetamido]-3-(3-carboxymethylthio-1,2,4-thiadiazol-5yl)thiomethyl-Δ^3 cephem-4-carboxylic acid]	–	–	–	–	–	–	–	–	< 0.09	0.78 (≈ 1.16 µM)	0.39 (≈ 0.578 µM)	12.5 (≈ 18.5 µM)	6.25 (≈ 9.26 µM)	12.5 (≈ 18.5 µM)	3.13 (≈ 4.64 µM)	1.56 (≈ 2.31 µM)	1.56 (≈ 2.31 µM)	3.13 (≈ 4.64 µM)	0.39 (≈ 0.578 µM)	0.39 (≈ 0.578 µM)	MIC ([9]; Klebsiella pneumoniae): 3.13 µg/mL (≈ 4.64 µM); MIC (Salmonella enteritidis; (10) Salmonella enteritidis, read-out: MIC): 0.39 µg/mL (≈ 0.578 µM); MIC [13]: 6.25 µg/mL (≈ 9.26 µM); MIC [14]: 0.78 µg/mL (≈ 1.16 µM); MIC [15]: 6.25 µg/mL (≈ 9.26 µM); MIC (Staphylococcus Onuma; (18) Staphylococcus Onuma, read-out: MIC): 6.25 µg/mL (≈ 9.26 µM); solubility ([3]; disodium salt, water, showing pH 7.4, read-out: Solubility: disodium salt dissolved in water in an amount of): > 200 mg/mL
